Measured values published in paper PMC10222120, “Inhibition Studies on Human and Mycobacterial Carbonic Anhydrases with N-((4-Sulfamoylphenyl)carbamothioyl) Amides” (Molecules, 2023).

Columns and labels:
Experiment in all cases: stopped-flow CO2 hydrase assay
Type in all cases: biochemical
MtCA2 = MtCA2 (Mycobacterium tuberculosis, UniProt P9WPJ9); details: read-out: KI (nM) ^a / MtCA2 (β-CA)
MtCA1 = MtCA1 (Mycobacterium tuberculosis, UniProt P9WPJ7); details: read-out: KI (nM) ^a / MtCA1 (β-CA)
hCA I = target: T1, hCA I (Homo sapiens, UniProt P00915); details: read-out: KI (nM) ^a / hCA I (α-CA)
T1 construct: gene CA1; recombinant, obtained in-house; cytosolic alpha-CA
Excerpt: stopped-flow CO2 hydrase assay on hCA I

MtCA3 = target: T2, MtCA3 (Mycobacterium tuberculosis, UniProt P96878); details: CO2 […]; […] TRIS pH […]; […] Na2SO4; […] h preincubation at room temperature; read-out: KI (nM) ^a / MtCA3 (β-CA)
T2 construct: gene Rv3273
Excerpt: stopped-flow CO2 hydrase assay on MtCA3

hCA VII = target: T3, hCA VII (Homo sapiens, UniProt P43166); details: read-out: KI (nM) ^a / hCA VII (α-CA)
T3 construct: gene CA7; recombinant, obtained in-house; cytosolic alpha-CA
Excerpt: stopped-flow CO2 hydrase assay on hCA VII

hCA II = target: T4, hCA II (Homo sapiens, UniProt P00918); details: read-out: KI (nM) ^a / hCA II (α-CA)
T4 construct: gene CA2; recombinant, obtained in-house; cytosolic alpha-CA
Excerpt: stopped-flow CO2 hydrase assay on hCA II

T2 sequence (P96878 555-764 limits assumed): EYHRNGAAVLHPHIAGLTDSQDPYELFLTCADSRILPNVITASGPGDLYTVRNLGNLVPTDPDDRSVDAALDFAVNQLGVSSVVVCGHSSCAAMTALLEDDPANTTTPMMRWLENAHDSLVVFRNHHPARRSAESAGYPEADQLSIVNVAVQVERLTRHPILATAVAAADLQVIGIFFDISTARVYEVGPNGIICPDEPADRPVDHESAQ
T1 sequence (P00915 2-261): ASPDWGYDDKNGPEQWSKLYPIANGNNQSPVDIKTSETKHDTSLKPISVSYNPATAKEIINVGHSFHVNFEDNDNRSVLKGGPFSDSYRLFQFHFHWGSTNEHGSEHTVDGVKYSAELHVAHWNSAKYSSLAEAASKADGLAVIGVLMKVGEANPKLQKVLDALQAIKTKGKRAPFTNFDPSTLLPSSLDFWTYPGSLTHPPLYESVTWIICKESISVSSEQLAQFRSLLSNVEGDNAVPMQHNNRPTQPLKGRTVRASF
T3 sequence (P43166 whole entry): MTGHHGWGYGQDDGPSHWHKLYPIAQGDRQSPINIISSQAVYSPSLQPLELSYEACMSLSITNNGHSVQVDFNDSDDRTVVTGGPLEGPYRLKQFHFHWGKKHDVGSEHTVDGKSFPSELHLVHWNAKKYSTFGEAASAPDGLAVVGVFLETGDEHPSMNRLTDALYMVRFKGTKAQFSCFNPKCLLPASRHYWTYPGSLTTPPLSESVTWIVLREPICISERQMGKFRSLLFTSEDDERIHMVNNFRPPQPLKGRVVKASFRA
Sequence of MtCA1 (P9WPJ7 2-163): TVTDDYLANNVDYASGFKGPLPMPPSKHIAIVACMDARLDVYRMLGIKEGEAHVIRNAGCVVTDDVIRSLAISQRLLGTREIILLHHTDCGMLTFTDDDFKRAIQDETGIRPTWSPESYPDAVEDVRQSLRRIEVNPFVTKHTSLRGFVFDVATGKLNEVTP
Sequence of MtCA2 (P9WPJ9 whole entry, looked up): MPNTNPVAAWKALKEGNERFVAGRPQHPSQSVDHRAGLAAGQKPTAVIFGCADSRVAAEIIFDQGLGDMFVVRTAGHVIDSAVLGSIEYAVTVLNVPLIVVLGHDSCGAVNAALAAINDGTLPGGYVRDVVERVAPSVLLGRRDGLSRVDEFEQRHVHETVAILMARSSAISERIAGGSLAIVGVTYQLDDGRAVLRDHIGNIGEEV

Structure (SMILES)	Ki (MtCA2)	Ki (MtCA1)	Ki (hCA I)	Ki (MtCA3)	Ki (hCA VII)	Ki (hCA II)
CC(=O)NC(=S)Nc1ccc(S(N)(=O)=O)cc1 [3a, N-((4-Sulfamoylphenyl)carbamothioyl)acetamide]	4.4 nM	897 nM	85.2 nM	610 nM	13.5 nM	78.7 nM
CCC(=O)NC(=S)Nc1ccc(S(N)(=O)=O)cc1 [3b, N-((4-Sulfamoylphenyl)carbamothioyl)propionamide]	5.4 nM	252 nM	58.3 nM	806 nM	2.8 nM	35.9 nM
CCCC(=O)NC(=S)Nc1ccc(S(N)(=O)=O)cc1 [3c, N-((4-Sulfamoylphenyl)carbamothioyl)butyramide]	7.6 nM	784 nM	50.3 nM	9400 nM	3 nM	7.7 nM
NS(=O)(=O)c1ccc(NC(=S)NC(=O)C2CC2)cc1 [3d, N-((4-Sulfamoylphenyl)carbamothioyl)cyclopropanecarboxamide]	4.2 nM	95.2 nM	87.4 nM	6280 nM	1.9 nM	384 nM
CC(C)C(=O)NC(=S)Nc1ccc(S(N)(=O)=O)cc1 [3e, N-((4-sulfamoylphenyl)carbamothioyl)isobutyramide]	57.1 nM	369 nM	72.7 nM	3670 nM	1.1 nM	8.9 nM
CC(C)CC(=O)NC(=S)Nc1ccc(S(N)(=O)=O)cc1 [3f, 3-methyl-N-((4-sulfamoylphenyl)carbamothioyl)butanamide]	21.1 nM	782 nM	36.4 nM	8390 nM	2.1 nM	5.3 nM
CCCCCC(=O)NC(=S)Nc1ccc(S(N)(=O)=O)cc1 [3g, N-((4-sulfamoylphenyl)carbamothioyl)hexanamide]	3.4 nM	3510 nM	13.3 nM	719 nM	3.2 nM	46.5 nM
NS(=O)(=O)c1ccc(NC(=S)NC(=O)C2CCCCC2)cc1 [3h, N-((4-Sulfamoylphenyl)carbamothioyl)cyclohexanecarboxamide]	8.4 nM	6670 nM	67.8 nM	7140 nM	2.2 nM	21.7 nM
NS(=O)(=O)c1ccc(NC(=S)NC(=O)Cc2cccc3ccccc23)cc1 [3i, 2-(Naphthalen-1-yl)-N-((4-sulfamoylphenyl)carbamothioyl)acetamide]	4.6 nM	962 nM	60.5 nM	2130 nM	2.6 nM	9.7 nM
C/C=C/C(=O)NC(=S)Nc1ccc(S(N)(=O)=O)cc1 [3j, N-((4-Sulfamoylphenyl)carbamothioyl)but-2-enamide]	9.2 nM	2420 nM	69.4 nM	851 nM	10.3 nM	64.6 nM
NS(=O)(=O)c1ccc(NC(=S)NC(=O)/C=C/c2ccccc2)cc1 [3k, N-((4-Sulfamoylphenyl)carbamothioyl)cinnamamide]	8.1 nM	224 nM	47.9 nM	447 nM	3.1 nM	9.2 nM
NS(=O)(=O)c1ccc(NC(=S)NC(=O)c2ccc([N+](=O)[O-])cc2)cc1 [3l, 4-nitro-N-((4-sulfamoylphenyl)carbamothioyl)benzamide]	4.8 nM	868 nM	87.6 nM	5280 nM	2.5 nM	6.8 nM
